Measurements reported in ChEMBL document CHEMBL1129874, “A SHORT AND EFFICIENT SYNTHESIS OF ZAMIFENACIN A MUSCARINIC M3 RECEPTOR ANTAGONIST” (Bioorg Med Chem Lett, 1997).
Calls of active or inactive are those of the source.

Key:
Homo sapiens [1] = species on record: Homo sapiens; assay: Compound was tested for the inhibition of the small bowel motility in humans; Active; assay type: functional, organism-based
[2] = target: T1, Muscarinic acetylcholine receptor M2 (Homo sapiens) (UniProt P08172); assay: Evaluated for the in vitro antagonistic activity against muscarinic M2 receptor; Active; assay type: functional
T1 sequence (whole entry): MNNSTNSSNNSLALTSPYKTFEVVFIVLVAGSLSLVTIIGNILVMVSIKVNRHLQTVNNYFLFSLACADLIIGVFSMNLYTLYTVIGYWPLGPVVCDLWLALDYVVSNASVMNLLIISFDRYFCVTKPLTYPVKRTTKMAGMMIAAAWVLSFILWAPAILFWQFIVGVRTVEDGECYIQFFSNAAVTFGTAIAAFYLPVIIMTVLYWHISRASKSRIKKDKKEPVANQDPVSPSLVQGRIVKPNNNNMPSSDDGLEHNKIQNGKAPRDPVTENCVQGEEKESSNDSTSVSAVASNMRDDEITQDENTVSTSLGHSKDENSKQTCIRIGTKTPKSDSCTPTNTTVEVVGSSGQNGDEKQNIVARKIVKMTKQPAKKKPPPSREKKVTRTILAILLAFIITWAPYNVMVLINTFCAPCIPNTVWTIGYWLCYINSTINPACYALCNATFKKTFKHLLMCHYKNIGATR

Homo sapiens [3] = species on record: Homo sapiens; assay: Compound was tested for the inhibition of the colonic motility in humans; Active; assay type: functional, organism-based
[4] = target: Muscarinic acetylcholine receptor M3 (Homo sapiens) (UniProt P20309); assay: Evaluated for the in vivo antagonistic activity against muscarinic M3 receptor; Active; assay type: functional, organism-based
Muscarinic acetylcholine receptor M3 (Homo sapiens), sequence (P20309 whole entry, looked up): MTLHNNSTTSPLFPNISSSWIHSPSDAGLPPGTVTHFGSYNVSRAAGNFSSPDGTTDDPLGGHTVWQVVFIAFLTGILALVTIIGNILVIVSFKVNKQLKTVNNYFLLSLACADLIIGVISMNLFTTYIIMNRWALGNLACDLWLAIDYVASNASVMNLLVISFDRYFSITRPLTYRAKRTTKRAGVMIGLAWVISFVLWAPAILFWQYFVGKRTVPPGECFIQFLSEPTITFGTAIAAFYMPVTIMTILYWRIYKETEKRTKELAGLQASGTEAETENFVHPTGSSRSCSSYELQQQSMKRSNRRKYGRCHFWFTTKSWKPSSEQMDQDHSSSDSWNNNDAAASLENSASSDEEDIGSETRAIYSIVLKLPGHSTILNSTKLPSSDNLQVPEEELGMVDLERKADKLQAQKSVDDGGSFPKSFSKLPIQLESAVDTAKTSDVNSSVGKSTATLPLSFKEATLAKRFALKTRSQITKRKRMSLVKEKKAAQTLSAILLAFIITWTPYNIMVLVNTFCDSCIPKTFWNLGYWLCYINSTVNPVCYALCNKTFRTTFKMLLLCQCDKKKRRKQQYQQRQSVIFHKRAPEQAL

Canis familiaris = species on record: Canis familiaris; assay: Compound was tested for the inhibition of the gastrointestinal motility in dogs; Active; assay type: functional, organism-based; conditions: Canis lupus familiaris

Measured: Activity

c1ccc(C(O[C@@H]2CCCN(CCc3ccc4c(c3)OCO4)C2)c2ccccc2)cc1
active: all assays above
